Experimental data reported in patent publication US9980982B2, “HE4 based therapy for malignant disease” (Women & Infants Hospital of Rhode Island, priority 2011, dated 2018).
Oligonucleotides are written 5' to 3', each unit as a sugar letter and its base; * is a phosphorothioate linkage, no mark a phosphodiester; rarer units and linkages stand in square brackets, end groups in braces. Plain capitals give the bases only. Starred links: 1 amine or outer side, 2 acyl side, 3 side chain; linkers in the order of their positions; H or OH if unused. Positions of bridges follow the written chain, without caps; N, C: chain ends. Non-standard residues stand in square brackets, D forms with d. Residues, ends and D or L forms follow the SMILES beside them. Chains are numbered I, II in the order given. Actinocin(9to1) = Cc1c2oc3c(C)ccc(C(=O)[*:1])c3nc-2c(C(=O)[*:2])c(N)c1=O; NMeV = CN[C@H](C(=O)O)C(C)C; d = 2'-deoxy (DNA); Sar = CNCC(=O)O

Columns and labels:
[1] = tested on: HE4; assay: HE4 levels in SKOV-3 cell lysates and media by sandwich ELISA; assay type: cell-based, Human; conditions: for effect on HE4 levels in media or cell-lysate of SKOV-3 cells: growth factors and cytokines, 6 hours; for effect on HE4 levels in SKOV-3: cytotoxic agents, 24 hrs, serum free DMEM, versus untreated controls
Procedure: (§1) Various agents were examined by RT-PCR or by a sandwich ELISA. […] HE4 levels in cell lysates and media were evaluated by a sandwich ELISA.
Cells were grown for 24 h in 100 mm cell culture dishes (Corning, New York, N.Y.), supernatant collected and lysates of washed and scraped cells prepared as described previously (Lange T S et al., 2007Chem Biol Drug Design, 70:302-10). Total protein of lysates was quantitated (BioRad protein estimation kit, Hercules, Calif.), and HE4 levels were determined using the HE4 EIA assay (Fujirebio Diagnostics, Malvern, Pa.), a solid-phase, non-competitive immunoassay using two mouse monoclonal antibodies, directed against two epitopes in the C-WFDC domain. Calibration curves were used to measure HE4 concentrations in both cell lysates and culture media allowing for the calculation of production and secretion of HE4 in pmol/g total cellular protein.
FIG. 15 is a bar chart showing that treatment with growth factors and cytokines affect the HE4 levels in ovarian cancer cells. SKOV-3 cells (1 million each) were seeded in 100 mm dishes and incubated overnight. The cells were treated with an array of factors (IL-6, Insulin, TNFa, EGF) and incubated for another 6 hours. The media was collected and cells were lysed using the cell lysis buffer. The HE4 content in the media or in the cell-lysate was examined by a HE4 sandwich ELISA kit.

[2] = tested on: HE4 mRNA; assay: HE4 mRNA expression in SKOV-3 cells by RT-PCR; assay type: cell-based, Human; conditions: stimulation in serum free DMEM (TNF 10 nM, Insulin 100 nM, EGF 10 nM, IL-6 10 nM)
Procedure: as §1
Total RNA isolation from cells was carried out using TRIzol and Reverse transcription on 3 μg RNA using SuperScript III transcriptase according to the manufacturers protocol (Invitrogen, Carlsbad, Calif.) followed by 30 cycles of PCR using the following primer pairs: HE4 sense, 5′-AGG AGC AGA GAA GAC TGG-3′ (SEQ ID NO: 27); HE4 antisense, 5′-TTA TCA TTG GGC AGA GAG-3′ (SEQ ID NO: 28); GAPDH sense, 5′-AAT CCC ATC ACC ATC TTC C-3′ (SEQ ID NO: 29); GAPDH antisense, 5′-GTCCTTCCACGATACCAAAG-3′ (SEQ ID NO: 30). Cycle conditions: 94° C./1 min; 55° C./2 min, 72° C./2 min. PCR products were separated on 2% agarose gels containing 0.4 mg/ml of ethidium bromide.

[3] = tested on: ovarian cancer (SKOV-3) cells xenograft; assay: Antisense HE4 oligos in ovarian cancer (SKOV-3) xenografted animals; assay type: in vivo, nude mice; conditions: 7 mg/kg bwt, IP, 5 days/week; for effect on tumor progression / tumor burden: within 28 days, versus scrambled, sense oligos and vehicle
Procedure: Left: Effect of treatment of antisense HE4 oligos (“HE4 antisense 1” corresponds to SEQ ID NO:2 and “HE4 antisense 2” corresponds to SEQ ID NO:4; red and violet, respectively), sense HE4 oligos (green), vehicle, and scrambled sequences (7 mg/kg bwt, IP) 5 days/week on the tumor size in animals xenografted with ovarian cancer (SKOV-3) cells. Right: the weight of the animals treated with oligos progressed as the day progressed, and no toxicity was observed.
HE4 overexpression promoted ovarian cancer burden in animals (FIG. 24), and caused strong chemoresistance against cisplatin in animals (FIG. 26). Thus, a set of antisense oligos were designed to knockdown the expression levels of HE4 in animals xenografted with ovarian cancer (SKOV-3) cells. Treatment at 5 days/week with antisense HE4 phosphorothio oligos suppressed the tumor progression in animals compared to scrambled or sense HE4 oligos and vehicle treated control within 28 days of the treatment.

[4] = tested on: HE4 overexpressing SKOV-3 clones HE4C1, -C3, -C7; assay: MTS cell viability assay, HE4 overexpressing SKOV-3 clones; assay type: cell-based, Human; conditions: 24 h; for viability at 20 µM: Homo sapiens, SK-OV-3, 24 h, 20 μM doxorubicin, untreated = 100%
Procedure: An HE4 overexpressing vector for stable expression was engineered by inserting a coding sequence of human WAP four-disulfide core domain 2 (WFDC2) cDNA into a multiple cloning site of an eukaryotic expression vector, pCMV6-entry (Origene, Rockville, Md.). Transfection of the constructs in SKOV-3 cells was performed using Lipofectamine 2000 (Invitrogen, Carlsbad, Calif.) according to the manufacturer's instructions. Stably transfected cells were selected by resistance to G-418 (500 μg/ml) (Research Products International, Mount Prospect, Ill.), applied 48 h after transfection and continued during cell culture. G-418 resistant cells were resuspended (density 5 cells/ml) in complete medium/G-418 and seeded as 200 μl/well on a 96 well cell culture plate (Corning, New York, N.Y.). Cells growing from single colonies (cloned; stable transfection) were isolated.
(§2) Cell growth and viability of cell lines (complete medium, 24 h incubation) was determined by the CellTiter 96® AQueous One Solution Assay (Promega Corp, Madison, Wis.) following the manufacturer's recommendations with modifications (Lange T S et al., 2008 PLOS One, 3(5):e2303). Experiments are expressed as the mean of triplicate determinations (X±SD) of a representative experiment in OD (cell growth) or % of absorbance by drug-treated versus untreated cells [=100%] (cell viability). Cisplatin (CDDP), paclitaxel, doxorubicin and camptothecin (CPT) were purchased from (Sigma Aldrich, St. Louis, Mo.).
(§3) To analyze the potential biological relevance of elevated HE4 production for ovarian cancer cells the efficacy of commonly used anticancer drugs was examined in a viability assay (FIG. 5). SKOV-3 clones or parental cells were treated with cisplatin, paclitaxel, doxorubicin, or camptothecin for 24 h in various concentrations as indicated and the cytotoxicity evaluated.

[5] = tested on: SKOV-3 cells; assay: MTS cell viability assay, parental/wild-type SKOV-3 cells; assay type: cell-based, Human; conditions: Homo sapiens, SK-OV-3; wild-type SKOV-3; 20 μM doxorubicin, 24 h; untreated = 100%
Procedure: as §2, §3

Molecule: Insulin: growth factor
- effect on HE4 levels in media or cell-lysate of SKOV-3 cells [1]: elevate HE4 levels
- effect on mRNA expression of HE4 in SKOV-3 cells [2]: did not affect mRNA expression of HE4

Molecule: C=C1/C(=C\C=C2/CCC[C@]3(C)[C@@H]([C@H](C)CCCC(C)(C)O)CC[C@@H]23)C[C@@H](O)C[C@@H]1O [Calcitriol]
- effect on HE4 levels in SKOV-3 [1]: upregulated HE4 expression

Molecule: 5′ G*A*C*A*C*C*T*T*C*C*C*A*C*A*G*C*C*A*T*T*G 3′ [SEQ ID NO:2]
- toxicity in animals (body weight) [3]: did not cause any toxicity
- effect on tumor progression / tumor burden ([3]; listed as HE4 antisense 1): suppressed the progression of ovarian tumor growth

Molecule: COc1cccc2c1C(=O)c1c(O)c3c(c(O)c1C2=O)C[C@@](O)(C(=O)CO)C[C@@H]3O[C@H]1C[C@H](N)[C@H](O)[C@H](C)O1 [doxorubicin]
- viability at 20 µM ([4]; HE4C1): 70%
- viability at 20 µM ([4]; HE4C3): 84%
- viability at 20 µM ([4]; HE4C7): 91%
- viability at 20 µM [5]: 58%

Molecule: 5′ A*C*A*C*C*T*T*C*C*C*A*C*A*G*C*C*A*T*T 3′ (DNA ACACCTTCCCACAGCCATT; DNA, all phosphorothioate, methylation of C not given here) [SEQ ID NO:5]
- effect on tumor progression / tumor burden [3]: showed tumor inhibitory activity

Molecule: TNF-a
- effect on HE4 levels in media or cell-lysate of SKOV-3 cells [1]: does not alter HE4 levels
- effect on mRNA expression of HE4 in SKOV-3 cells [2]: did not affect mRNA expression of HE4

Molecule: 5′ G*A*C*A*C*C*T*T*C*C*C*A*C*A*G*C*C*A*T*T 3′ (DNA dG*dA*dC*dA*dC*dC*dT*dT*dC*dC*dC*dA*dC*dA*dG*dC*dC*dA*dT*dT; antisense) [SEQ ID NO:1]
- effect on tumor progression / tumor burden [3]: showed tumor inhibitory activity

Molecule: IL-6: cytokine
- effect on HE4 levels in media or cell-lysate of SKOV-3 cells [1]: suppresses the HE4 levels
- effect on mRNA expression of HE4 in SKOV-3 cells [2]: did not affect mRNA expression of HE4

Molecule: 5′ A*C*A*C*C*T*T*C*C*C*A*C*A*G*C*C*A*T*T*G 3′ [SEQ ID NO:4]
- toxicity in animals (body weight) [3]: did not cause any toxicity
- effect on tumor progression / tumor burden [3]: strong reduction in tumor burden
- effect on tumor progression / tumor burden ([3]; listed as HE4 antisense 2): suppressed the progression of ovarian tumor growth

Molecule: COc1cc2ncnc(Nc3ccc(F)c(Cl)c3)c2cc1OCCCN1CCOCC1 [Iressa]
- effect on HE4 levels in SKOV-3 [1]: suppressed HE4 levels

Molecule: EGF: epidermal growth factor (NSDSECPLSHDGYCLHDGVCMYIEALDKYACNCVVGYIGERCQYRDLKWWELR; UniProt P01133 971-1023, looked up)
- effect on HE4 levels in media or cell-lysate of SKOV-3 cells [1]: elevate HE4 levels
- effect on mRNA expression of HE4 in SKOV-3 cells [2]: did not affect mRNA expression of HE4

Molecule: Cc1c2oc3c(C)ccc(C(=O)N[C@@H]4C(=O)N[C@H](C(C)C)C(=O)N5CCC[C@H]5C(=O)N(C)CC(=O)N(C)[C@@H](C(C)C)C(=O)O[C@@H]4C)c3nc-2c(C(=O)N[C@@H]2C(=O)N[C@H](C(C)C)C(=O)N3CCC[C@H]3C(=O)N(C)CC(=O)N(C)[C@@H](C(C)C)C(=O)O[C@@H]2C)c(N)c1=O [Actinomycin-D] (I: T[dV]P[Sar][NMeV] / II: T[dV]P[Sar][NMeV]; ester I:1-I:C, II:1-II:C; linker I:N-II:N via Actinocin(9to1))
- effect on HE4 levels in SKOV-3 [1]: suppressed HE4 levels

Molecule: 5′ G*A*C*A*C*C*T*T*C*C*C*A*C*A*G*C*C*A*T 3′ (DNA GACACCTTCCCACAGCCAT; DNA, all phosphorothioate, methylation of C not given here) [SEQ ID NO:3]
- effect on tumor progression / tumor burden [3]: showed tumor inhibitory activity

Molecule: Tunicamycin
- effect on HE4 levels in SKOV-3 [1]: suppressed HE4 levels

Molecule: CC[C@@]1(O)C(=O)OCc2c1cc1n(c2=O)Cc2cc3ccccc3nc2-1 [camptothecin]
- maximum difference in viability between wild-type cells and HE4C1, -3, -7 ([4]; camptothecin, at 1.2 μM): ≤ 21%
